Measured values as given in patent US11083725B2 (priority 2014, dated 2021).

Tested on: NHBE cells
Assay: Biolog metabolic array: substrate use by NHBE cells with or without CA09 infection
Format: cell-based, human
Conditions: for Substrate use, 590 nm absorbance normalized to zero hour, 0 hr: Biolog PMM2, 0 hr; for Substrate use, 590 nm absorbance normalized to zero hour, 1 hr: Biolog PMM2, 1 hr; for Substrate use, 590 nm absorbance normalized to zero hour, 5 hr: Biolog PMM2, 5 hr; for Substrate use, 590 nm absorbance normalized to zero hour, 7 hr: Biolog PMM2, 7 hr
[1] = Control (uninfected) NHBE cells
[2] = Virus (CA09-infected, MOI 1) NHBE cells
[3] = Virus: CA09-infected NHBE cells, MOI 1, Biolog PMM2

| SMILES | 590 nm absorbance normalized to zero hour (substrate use), 0 hr [1] | 590 nm absorbance normalized to zero hour (substrate use), 1 hr [1] | 590 nm absorbance normalized to zero hour (substrate use), 2 hr [1] | 590 nm absorbance normalized to zero hour (substrate use), 3 hr [1] | 590 nm absorbance normalized to zero hour (substrate use), 4 hr [1] | 590 nm absorbance normalized to zero hour (substrate use), 6 hr [1] | 590 nm absorbance normalized to zero hour (substrate use), 8 hr [1] | 590 nm absorbance normalized to zero hour (substrate use), 9 hr [1] | 590 nm absorbance normalized to zero hour (substrate use), 10 hr [1] | 590 nm absorbance normalized to zero hour (substrate use), 11 hr [1] | Substrate use, 590 nm absorbance normalized to zero hour, 0 hr [1] | Substrate use, 590 nm absorbance normalized to zero hour, 1 hr [1] | Substrate use, 590 nm absorbance normalized to zero hour, 5 hr [1] | Substrate use, 590 nm absorbance normalized to zero hour, 7 hr [1] | 590 nm absorbance normalized to zero hour (substrate use), 0 hr [2] | 590 nm absorbance normalized to zero hour (substrate use), 1 hr [2] | 590 nm absorbance normalized to zero hour (substrate use), 2 hr [2] | 590 nm absorbance normalized to zero hour (substrate use), 3 hr [2] | 590 nm absorbance normalized to zero hour (substrate use), 4 hr [2] | 590 nm absorbance normalized to zero hour (substrate use), 5 hr [2] | further results |
| --- | --- | --- | --- | --- | --- | --- | --- | --- | --- | --- | --- | --- | --- | --- | --- | --- | --- | --- | --- | --- | --- |
| CC[C@H](O)C(=O)O (racemic) [D,L-a-Hydroxy-Butyric Acid] | 1.00 | 0.92 | 1.05 | 0.99 | 1.01 | 0.56 | 0.72 | 1.79 | 0.74 | 2.19 | 1.00 | 0.92 | 1.18 | 1.41 | 1.00 | 1.29 | 1.58 | 1.74 | 1.84 | 2.00 | 590 nm absorbance normalized to zero hour (substrate use), 6 hr [2]: 2.10; 590 nm absorbance normalized to zero hour (substrate use), 7 hr [2]: 2.18; 590 nm absorbance normalized to zero hour (substrate use), 8 hr [2]: 2.26; 590 nm absorbance normalized to zero hour (substrate use), 9 hr [2]: 2.35; 590 nm absorbance normalized to zero hour (substrate use), 10 hr [2]: 2.39; 590 nm absorbance normalized to zero hour (substrate use), 11 hr [2]: 2.21; 590 nm absorbance normalized to zero hour (substrate use), 0 hr [3]: 1.00; 590 nm absorbance normalized to zero hour (substrate use), 1 hr [3]: 1.29; 590 nm absorbance normalized to zero hour (substrate use), 2 hr [3]: 1.58; 590 nm absorbance normalized to zero hour (substrate use), 3 hr [3]: 1.74; 590 nm absorbance normalized to zero hour (substrate use), 4 hr [3]: 1.84; 590 nm absorbance normalized to zero hour (substrate use), 5 hr [3]: 2.00; 590 nm absorbance normalized to zero hour (substrate use), 6 hr [3]: 2.10; 590 nm absorbance normalized to zero hour (substrate use), 7 hr [3]: 2.18; 590 nm absorbance normalized to zero hour (substrate use), 8 hr [3]: 2.26; 590 nm absorbance normalized to zero hour (substrate use), 9 hr [3]: 2.35; 590 nm absorbance normalized to zero hour (substrate use), 10 hr [3]: 2.39; 590 nm absorbance normalized to zero hour (substrate use), 11 hr [3]: 2.21 |
| OC[C@H]1O[C@H](O[C@H]2O[C@H](CO)[C@@H](O)[C@H](O)[C@H]2O)[C@H](O)[C@@H](O)[C@@H]1O [D-Trehalose] | 1.00 | 1.68 | 2.24 | 2.70 | 2.88 | 3.69 | 4.74 | 5.11 | 4.09 | 4.60 | 1.00 | 1.68 | 3.48 | 4.20 | 1.00 | 1.66 | 2.04 | 2.20 | 2.27 | 2.52 | 590 nm absorbance normalized to zero hour (substrate use), 6 hr [2]: 2.66; 590 nm absorbance normalized to zero hour (substrate use), 7 hr [2]: 2.79; 590 nm absorbance normalized to zero hour (substrate use), 8 hr [2]: 2.93; 590 nm absorbance normalized to zero hour (substrate use), 9 hr [2]: 3.11; 590 nm absorbance normalized to zero hour (substrate use), 10 hr [2]: 3.25; 590 nm absorbance normalized to zero hour (substrate use), 11 hr [2]: 3.07; 590 nm absorbance normalized to zero hour (substrate use), 0 hr [3]: 1.00; 590 nm absorbance normalized to zero hour (substrate use), 1 hr [3]: 1.66; 590 nm absorbance normalized to zero hour (substrate use), 2 hr [3]: 2.04; 590 nm absorbance normalized to zero hour (substrate use), 3 hr [3]: 2.20; 590 nm absorbance normalized to zero hour (substrate use), 4 hr [3]: 2.27; 590 nm absorbance normalized to zero hour (substrate use), 5 hr [3]: 2.52; 590 nm absorbance normalized to zero hour (substrate use), 6 hr [3]: 2.66; 590 nm absorbance normalized to zero hour (substrate use), 7 hr [3]: 2.79; 590 nm absorbance normalized to zero hour (substrate use), 8 hr [3]: 2.93; 590 nm absorbance normalized to zero hour (substrate use), 9 hr [3]: 3.11; 590 nm absorbance normalized to zero hour (substrate use), 10 hr [3]: 3.25; 590 nm absorbance normalized to zero hour (substrate use), 11 hr [3]: 3.07 |
| OC[C@H]1O[C@@](CO)(O[C@H]2O[C@H](CO)[C@@H](O)[C@H](O)[C@H]2O)[C@@H](O[C@H]2O[C@H](CO)[C@@H](O)[C@H](O)[C@H]2O)[C@@H]1O [D-Melezitose] | 1.00 | 1.47 | 1.93 | 2.23 | 2.39 | 3.85 | 3.55 | 3.84 | 4.31 | 3.97 | 1.00 | 1.47 | 2.80 | 3.32 | 1.00 | 1.67 | 2.39 | 2.73 | 2.88 | 3.35 | 590 nm absorbance normalized to zero hour (substrate use), 6 hr [2]: 3.57; 590 nm absorbance normalized to zero hour (substrate use), 7 hr [2]: 3.77; 590 nm absorbance normalized to zero hour (substrate use), 8 hr [2]: 3.98; 590 nm absorbance normalized to zero hour (substrate use), 9 hr [2]: 4.49; 590 nm absorbance normalized to zero hour (substrate use), 10 hr [2]: 4.69; 590 nm absorbance normalized to zero hour (substrate use), 11 hr [2]: 5.01; 590 nm absorbance normalized to zero hour (substrate use), 0 hr [3]: 1.00; 590 nm absorbance normalized to zero hour (substrate use), 1 hr [3]: 1.67; 590 nm absorbance normalized to zero hour (substrate use), 2 hr [3]: 2.39; 590 nm absorbance normalized to zero hour (substrate use), 3 hr [3]: 2.73; 590 nm absorbance normalized to zero hour (substrate use), 4 hr [3]: 2.88; 590 nm absorbance normalized to zero hour (substrate use), 5 hr [3]: 3.35; 590 nm absorbance normalized to zero hour (substrate use), 6 hr [3]: 3.57; 590 nm absorbance normalized to zero hour (substrate use), 7 hr [3]: 3.77; 590 nm absorbance normalized to zero hour (substrate use), 8 hr [3]: 3.98; 590 nm absorbance normalized to zero hour (substrate use), 9 hr [3]: 4.49; 590 nm absorbance normalized to zero hour (substrate use), 10 hr [3]: 4.69; 590 nm absorbance normalized to zero hour (substrate use), 11 hr [3]: 5.01 |
| C[C@@H](O)CC(=O)O [b-Hydroxy-Butyric Acid] | 1.00 | 1.65 | 2.08 | 2.16 | 2.31 | 2.37 | 2.68 | 2.90 | 3.02 | 7.04 | 1.00 | 1.65 | 2.75 | 2.49 | 1.00 | 1.78 | 2.31 | 2.61 | 2.77 | 3.16 | 590 nm absorbance normalized to zero hour (substrate use), 6 hr [2]: 3.34; 590 nm absorbance normalized to zero hour (substrate use), 7 hr [2]: 3.47; 590 nm absorbance normalized to zero hour (substrate use), 8 hr [2]: 3.62; 590 nm absorbance normalized to zero hour (substrate use), 9 hr [2]: 3.79; 590 nm absorbance normalized to zero hour (substrate use), 10 hr [2]: 3.87; 590 nm absorbance normalized to zero hour (substrate use), 11 hr [2]: 3.29; 590 nm absorbance normalized to zero hour (substrate use), 0 hr [3]: 1.00; 590 nm absorbance normalized to zero hour (substrate use), 1 hr [3]: 1.78; 590 nm absorbance normalized to zero hour (substrate use), 2 hr [3]: 2.31; 590 nm absorbance normalized to zero hour (substrate use), 3 hr [3]: 2.61; 590 nm absorbance normalized to zero hour (substrate use), 4 hr [3]: 2.77; 590 nm absorbance normalized to zero hour (substrate use), 5 hr [3]: 3.16; 590 nm absorbance normalized to zero hour (substrate use), 6 hr [3]: 3.34; 590 nm absorbance normalized to zero hour (substrate use), 7 hr [3]: 3.47; 590 nm absorbance normalized to zero hour (substrate use), 8 hr [3]: 3.62; 590 nm absorbance normalized to zero hour (substrate use), 9 hr [3]: 3.79; 590 nm absorbance normalized to zero hour (substrate use), 10 hr [3]: 3.87; 590 nm absorbance normalized to zero hour (substrate use), 11 hr [3]: 3.29 |
